Measured values reported in ChEMBL document CHEMBL1201862, “PubChem BioAssay data set” (2004).
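Values below derive from 48-hour exposures of cells grown in 96-well plates, with endpoints linearly interpolated between the two concentrations bracketing the appropriate inhibition level. Abbreviation: GI50, concentration required for 50% inhibition of growth.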 Calls of active or inactive are those of the source. Rule as the data show it: active = GI50 up to about 1.1 µM and inactive = higher.

Assays:
Experiment in all cases: growth of human tumour cells (NCI), 48 h
[1] = test system: NCI-H226
[2] = test system: OVCAR-8
[3] = test system: RPMI-8226
[4] = test system: HOP-62
[5] = test system: NCI-H23
[6] = test system: SK-OV-3
[7] = test system: HCT-116
[8] = test system: K562
[9] = test system: NCI-H522
[10] = test system: A498
[11] = test system: T47D
[12] = test system: SK-MEL-28
[13] = test system: MDA-MB-435
[14] = test system: SW-620
[15] = test system: MDA-MB-231
[16] = test system: BT-549
[17] = test system: EKVX
[18] = test system: U-251
[19] = test system: ACHN

## CC(=O)OC1=c2ccccc2=C(O)C2C1C=NN2C(C)=O (stereo not given)
[1]
  GI50: > 100 µM (inactive)
[2]
  GI50: > 100 µM (inactive)
[3]
  GI50: > 100 µM (inactive)
[4]
  GI50: > 100 µM (inactive)
[5]
  GI50: > 100 µM (inactive)
[6]
  GI50: > 100 µM (inactive)
[7]
  GI50: > 100 µM (inactive)
[8]
  GI50: 18.4 µM (inactive)
[9]
  GI50: > 100 µM (inactive)
[10]
  GI50: > 100 µM (inactive)
[11]
  GI50: > 100 µM (inactive)
[12]
  GI50: > 100 µM (inactive)
[13]
  GI50: > 100 µM (inactive)
[14]
  GI50: > 100 µM (inactive)
[15]
  GI50: > 100 µM (inactive)
[16]
  GI50: > 100 µM (inactive)
[17]
  GI50: 79.4 µM (inactive)
[18]
  GI50: > 100 µM (inactive)
[19]
  GI50: > 100 µM (inactive)

## CC(=O)O[C@H]1C(=O)[C@@]2(C)[C@H]([C@H](OC(=O)c3ccccc3)[C@]3(O)C[C@H](OC(=O)[C@H](O)[C@@H](NC(=O)c4ccoc4)c4ccccc4)C(C)=C1C3(C)C)[C@]1(OC(C)=O)CO[C@@H]1C[C@@H]2O
[1]
  GI50: 0.0386 µM (active)
[2]
  GI50: 0.067 µM (active)
[3]
  GI50: 0.00871 µM (active)
[4]
  GI50: 0.212 µM (active)
[5]
  GI50: 0.0261 µM (active)
[6]
  GI50: 0.358 µM (active)
[7]
  GI50: 0.0147 µM (active)
[8]
  GI50: 0.016 µM (active)
[9]
  GI50: < 0.01 µM (active)
[10]
  GI50: 0.0713 µM (active)
[11]
  GI50: 0.0307 µM (active)
[12]
  GI50: 0.0532 µM (active)
[13]
  GI50: 0.0071 µM (active)
[14]
  GI50: 0.021 µM (active)
[15]
  GI50: 0.0434 µM (active)
[16]
  GI50: < 0.01 µM (active)
[17]
  GI50: 0.897 µM (active)
[18]
  GI50: 0.00791 µM (active)
[19]
  GI50: 0.37 µM (active)

## Nc1ccccc1.O=P(O)(O)c1ccccc1
[1]
  GI50: > 100 µM (inactive)
[2]
  GI50: > 100 µM (inactive)
[3]
  GI50: > 100 µM (inactive)
[4]
  GI50: > 100 µM (inactive)
[5]
  GI50: > 100 µM (inactive)
[6]
  GI50: > 100 µM (inactive)
[7]
  GI50: > 100 µM (inactive)
[8]
  GI50: > 100 µM (inactive)
[9]
  GI50: > 100 µM (inactive)
[10]
  GI50: > 100 µM (inactive)
[11]
  GI50: > 100 µM (inactive)
[12]
  GI50: > 100 µM (inactive)
[13]
  GI50: > 100 µM (inactive)
[14]
  GI50: > 100 µM (inactive)
[15]
  GI50: > 100 µM (inactive)
[16]
  GI50: > 100 µM (inactive)
[17]
  GI50: > 100 µM (inactive)
[18]
  GI50: > 100 µM (inactive)
[19]
  GI50: > 100 µM (inactive)

## COc1ccc(N2C(=O)C3c4[nH]c5ccccc5c4C4CCC(C(C)C)CC4C3C2=O)cc1 (stereo not given)
[1]
  GI50: > 100 µM (inactive)
[2]
  GI50: > 100 µM (inactive)
[3]
  GI50: > 100 µM (inactive)
[4]
  GI50: 33 µM (inactive)
[5]
  GI50: > 100 µM (inactive)
[6]
  GI50: 37.6 µM (inactive)
[7]
  GI50: > 100 µM (inactive)
[8]
  GI50: > 100 µM (inactive)
[9]
  GI50: > 100 µM (inactive)
[10]
  GI50: > 100 µM (inactive)
[11]
  GI50: > 100 µM (inactive)
[12]
  GI50: > 100 µM (inactive)
[13]
  GI50: > 100 µM (inactive)
[14]
  GI50: > 100 µM (inactive)
[15]
  GI50: > 100 µM (inactive)
[16]
  GI50: > 100 µM (inactive)
[17]
  GI50: > 100 µM (inactive)
[18]
  GI50: 38.8 µM (inactive)
[19]
  GI50: > 100 µM (inactive)

## Cc1ccccc1OC(C)C(=O)NN1C(=O)CC(=O)N(c2ccccc2)C1=S (stereo not given)
[1]
  GI50: 41.9 µM (inactive)
[2]
  GI50: 56.6 µM (inactive)
[3]
  GI50: 43.3 µM (inactive)
[4]
  GI50: 69.2 µM (inactive)
[5]
  GI50: 88.1 µM (inactive)
[6]
  GI50: > 100 µM (inactive)
[7]
  GI50: 33.4 µM (inactive)
[8]
  GI50: 41.4 µM (inactive)
[9]
  GI50: 77.4 µM (inactive)
[10]
  GI50: 36 µM (inactive)
[11]
  GI50: 35.3 µM (inactive)
[12]
  GI50: > 100 µM (inactive)
[13]
  GI50: 73.1 µM (inactive)
[14]
  GI50: 78.3 µM (inactive)
[15]
  GI50: > 100 µM (inactive)
[16]
  GI50: > 100 µM (inactive)
[17]
  GI50: 75.7 µM (inactive)
[18]
  GI50: 62.7 µM (inactive)
[19]
  GI50: 53.8 µM (inactive)
